Here are results for 14 molecules from patent publication US7927622B1, “Methods of transnasal transport/immunization with highly adaptable carriers” (priority 1999, dated 2011).

Non-standard residues stand in square brackets, D forms with d. Residues, ends and D or L forms follow the SMILES beside them. dTrp(2-Me) = Cc1[nH]c2ccccc2c1C[C@@H](N)C(=O)O

For data set [1] the following is noted: in vivo; cited from earlier work.
The conditions of data set [2]: in vivo, cited from earlier work.
For data set [3] the following is noted: in vivo; cited from earlier work. The source holds these as a separate data set.
The conditions of data set [4]: in vivo; cited from earlier work. The source holds these as a separate data set.
The subject of data set [5] is GH response. Particulars: in vivo, cited from earlier work.
The conditions of data set [6]: in vivo; cited from earlier work. The source holds these as a separate data set.
The conditions of data set [7]: human, in vivo, cited from earlier work.
The conditions of data set [8]: cited from earlier work.
The conditions of data set [9]: in vivo; cited from earlier work. The source holds these as a separate data set.
Data set [10] deals with A-receptor subtype (Canis lupus familiaris, UniProt Q5D0K2). Particulars: dog, in vivo; cited from earlier work.
For data set [11] the following is noted: human, in vivo; cited from earlier work.
For data set [12] the following is noted: rat, in vivo, sc; cited from earlier work.
For data set [13] the following is noted: in vivo; cited from earlier work. This is another data set of the same source.
Data set [14] has as its system anti-TT antibodies. Set-up: species or system mice. The following applies: mouse, in vivo.
For data set [15] the following is noted: stomach and GI tract, cited from earlier work.
The conditions of data set [16]: cited from earlier work. This is another data set of the same source.
For data set [17] the following is noted: cited from earlier work. The source holds these as a separate data set.
Where [18] appears, read: with polyoxyethylene 9-lauryl ether (Laureth-9).

As a reminder, the bioavailability is the share of a dose that reaches the circulation, judged against a reference dose that is usually intravenous.

Chain of A-receptor subtype (Q5D0K2 whole entry): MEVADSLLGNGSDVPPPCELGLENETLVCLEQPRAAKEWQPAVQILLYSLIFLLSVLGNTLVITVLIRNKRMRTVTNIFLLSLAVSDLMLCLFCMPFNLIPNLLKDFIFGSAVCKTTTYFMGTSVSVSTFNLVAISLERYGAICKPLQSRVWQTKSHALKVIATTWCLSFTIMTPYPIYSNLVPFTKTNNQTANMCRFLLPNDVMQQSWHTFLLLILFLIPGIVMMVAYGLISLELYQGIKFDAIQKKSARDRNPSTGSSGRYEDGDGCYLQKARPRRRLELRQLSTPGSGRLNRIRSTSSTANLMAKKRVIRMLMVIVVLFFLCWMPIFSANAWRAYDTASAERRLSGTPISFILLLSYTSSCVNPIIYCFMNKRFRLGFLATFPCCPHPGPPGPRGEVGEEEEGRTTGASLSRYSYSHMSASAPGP

As for `NC(=O)CC[C@@H]1NC(=O)[C@H](Cc2ccccc2)NC(=O)[C@H](Cc2ccc(O)cc2)NC(=O)[C@@H](N)CSSC[C@@H](C(=O)N2CCC[C@H]2C(=O)N[C@@H](CCCN=C(N)N)C(=O)NCC(N)=O)NC(=O)[C@H](CC(N)=O)NC1=O` [AVP], the memory performance entry in data set [1] is given as “enhanced memory performance”. Besides, in data set [2] (iv), the “plasma vasopressin increase after i.v. relative to the other route” value was “exceeding 2000 fold”. For the same molecule, the “P3 component of the ERP” value in [2] is “substantially increased”.
On to `NC(=O)CC[C@@H]1NC(=O)[C@H](Cc2ccccc2)NC(=O)[C@H](Cc2ccc(O)cc2)NC(=O)CCSSC[C@@H](C(=O)N2CCC[C@H]2C(=O)N[C@H](CCCN=C(N)N)C(=O)NCC(N)=O)NC(=O)[C@H](CC(N)=O)NC1=O` [DDAVP], for which, in data set [3], the pain perception entry is on record as “no general effect”.
On to `CCNC(=O)[C@@H]1CCCN1C(=O)[C@H](CCCNC(=N)N)NC(=O)[C@H](CC(C)C)NC(=O)[C@@H](COC(C)(C)C)NC(=O)[C@H](Cc1ccc(O)cc1)NC(=O)[C@H](CO)NC(=O)[C@H](Cc1c[nH]c2ccccc12)NC(=O)[C@H](Cc1cnc[nH]1)NC(=O)[C@@H]1CCC(=O)N1` [buserelin], for which, in data set [4], the “AFS mean pelvic score after treatment (from 24)” value is given as 7 and the “decrease of the size of the fibroids” value is given as 69%.
Turning to `Cc1[nH]c2ccccc2c1C[C@@H](NC(=O)[C@@H](N)Cc1cnc[nH]1)C(=O)N[C@@H](C)C(=O)N[C@@H](Cc1c[nH]c2ccccc12)C(=O)N[C@H](Cc1ccccc1)C(=O)N[C@@H](CCCCN)C(N)=O` [hexarelin] (H-H[dTrp(2-Me)]AW[dF]K-NH2), the “IGF-I and IGFBP-3 levels” value in [5] (po) was “slightly but significantly increased”. In addition, in data set [5], the GH response result is on record as “not significantly higher than that induced by an injection of 1 μg GHRH/kg”, the IGF-I result is “did not significantly modify” and the IGFBP-3 levels result is “increased”.
As to `NC(=O)CC[C@@H]1NC(=O)[C@H](Cc2ccccc2)NC(=O)[C@H](Cc2ccc(O)cc2)NC(=O)[C@@H](N)CSSC[C@@H](C(=O)N2CCC[C@H]2C(=O)N[C@@H](CCCN=C(N)N)C(=O)NCC(N)=O)NC(=O)[C@H](CC(N)=O)NC1=O` [vasopressin], the nocturnal slow-wave sleep entry in [6] is listed as “enhance nocturnal slow-wave sleep”.
Take CCK-8: the “auditory event related potential (AERP)” value in [7] (iv) was “shown to affect the auditory event related potential (AERP)”. In addition, in data set [7], the “plasma CCK-8 concentrations vs 0.25 μg i.v.” value is “comparable” and the “plasma CCK-8 concentrations vs 2.5 μg i.v.” value is given as “substantially lower”.
As for GH: growth hormone protein, the “serum GH peak value” in [8] (i.v. 0.015 IU/kg) is 128 µg/L. Further, the “serum GH peak level” value in [8] (s.c. 0.10 IU/kg) was “around 14 μg/L”. Moreover, the “serum IGF-I levels” value in [8] (s.c. administration only) is given as “increased significantly”. Moreover, in data set [8] (s.c. injection), the bioavailability is on record as 50%.
GHRP-2: the “response to intranasal GHRP-2” value in data set [9] was “significant, but not quantitated, response”.
For Hpa(SO3H)-Nle-Gly-Trp-Nle-MeAsp-Phe-NH2, in data set [10], the feeding result is on record as “inhibited feeding”.
With Salmon calcitonin, in [11], the “decrease in serum 1,25-dihydroxyvitamin D” value is given as 14%, the “inhibition of the increase in fasting 2 h urinary hydroxyproline/creatinine ratio (OHPr/Cr)” value was 40%, the “lowering of the increase in calcium/creatinine ratio (Ca/Cr)” value is 80% and the “pain scores (visual analog scale)” value is recorded as “did not influence the pain scores”. The tolerability entry in data set [11] is on record as “well tolerated”. Moreover, in [12], the “effectiveness of the invasive method relative to nasal” value is on record as “approximately 2 times” and the osteopenic changes result was “prevented the osteopenic changes”.
Take “desglycinamide-[Arg8]vasopressin [DGAVP]”: in data set [13], the learning concrete words result is on record as “no positive effect”, the “reaction time for scanning of digits (Sternberg paradigm)” value is given as “reduced the reaction time” and the “short-term memory for abstract words” value is “improved short-term memory for abstract words in males but not in females”.
With monophosphoryl Lipid A [LA], in data set [14], the “dependence of immune response on LA” value was “no strong dependence was found”, the “dose dependence of TT-specific increase in serum absorbance” value is reported as “reverting this trend” and the “effect of LA with purified TT” value is “profited from the presence of LA”.

B1: OVA: ovalbumin (protein, UniProt P01012 2-386, looked up)
Ovalbumin: GSIGAASMEFCFDVFKELKVHHANENIFYCPIAIMSALAMVYLGAKDSTRTQINKVVRFDKLPGFGDSIEAQCGTSVNVHSSLRDILNQITKPNDVYSFSLASRLYAEERYPILPEYLQCVKELYRGGLEPINFQTAADQARELINSWVESQTNGIIRNVLQPSSVDSQTAMVLVNAIVFKGLWEKAFKDEDTQAMPFRVTEQESKPVQMMYQIGLFRVASMASEKMKILELPFASGTMSMLVLLPDEVSGLEQLESIINFEKLTEWTSSNVMEERKIKVYLPRMKMEEKYNLTSVLMAMGITDVFSSSANLSGISSAESLKISQAVHAAHAEINEAGREVVGSAEAGVDAASVSEEFRADHPFLFCIKHIATNAVLFFGRCVSP
Take B1: the “absorption into the blood circulation, of applied dose” value in data set [15] (first printed range) is 0.007-0.008%. In data set [15] (second printed range), the “absorption into the lymph circulation, of applied dose” value was 0.0007-0.002%.

B2: rhG-CSF: recombinant human granulocyte colony-stimulating factor, MW=19600 (protein, UniProt P09919 31-207, looked up)
Granulocyte …: TPLGPASSLPQSFLLKCLEQVRKIQGDGAALQEKLVSECATYKLCHPEELVLLGHSLGIPWAPLSSCPSQALQLAGCLSQLHSGLFLYQGLLQALEGISPELGPTLDTLQLDVADFATTIWQQMEELGMAPALQPTQGAMPAFASAFQRRAGGVLVASHLQSFLEVSYRVLRHLAQP
Take B2: in data set [16] (nasal, t=48 h), the “availability from leukocyte stimulation counts” value is 5-10%. Also, the “relative bioavailability compared to s.c. injection (plasma AUC)” value in [16] (rat, in vivo) is “approximately 2%”. In [16] (setting [18]), the “increase of pharmacological availability” value was 3 times and the “increase of relative bioavailability” value is listed as 23 times. Also, the change of availability result in data set [16] (with sodium glycocholate) was “no increase in availability”. For the same molecule, the “total leukocyte numbers in peripheral blood” value in [17] (nasal, pH 4, with or without dimethyl-β-cyclodextrin) is “increased”. Besides, the absorption with excipients entry in [17] (with dimethyl-β-cyclodextrin) was “improved the absorption of rhG-CSF appreciably”.
